Test results reported in publication PMC3723537, “Structural Basis for Native Agonist and Synthetic Inhibitor Recognition by the Pseudomonas aeruginosa Quorum Sensing Regulator PqsR (MvfR)” (PLoS Pathogens, 2013).
“Also recorded” adds a separate entry of the source. Like-named read-outs stand apart in the source and are kept apart here.

Key:
PqsR [1] = molecular target: T1, PqsR (Pseudomonas aeruginosa, UniProt Q9I4X0); assay: cell-based; design: assayed for their agonist and antagonist activities in a whole P. aeruginosa bacterial cell assay; endogenous in cells; host or cells: P. aeruginosa PAO1 wild type, ΔpqsA or ΔpqsAH strains carrying a chromosomal (mini)CTX::pqsA'-lux fusion; conditions: for Agonist activity on PqsR (in words): pqsA'-lux reporter
T1 sequence (Q9I4X0 1-332): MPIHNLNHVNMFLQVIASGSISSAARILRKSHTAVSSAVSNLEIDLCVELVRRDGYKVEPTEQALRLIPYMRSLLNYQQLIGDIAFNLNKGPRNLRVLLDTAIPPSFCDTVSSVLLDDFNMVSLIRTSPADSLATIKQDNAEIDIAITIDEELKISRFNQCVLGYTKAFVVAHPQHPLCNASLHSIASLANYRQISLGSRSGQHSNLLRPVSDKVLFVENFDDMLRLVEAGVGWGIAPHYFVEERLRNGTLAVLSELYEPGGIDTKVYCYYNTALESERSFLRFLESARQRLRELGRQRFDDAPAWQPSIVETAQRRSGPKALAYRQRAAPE

PqsR [2] = molecular target: T1, PqsR; assay: cell-based; design: assayed for their agonist and antagonist activities in a whole P. aeruginosa bacterial cell assay; endogenous in cells; host or cells: P. aeruginosa PAO1 wild type, ΔpqsA or ΔpqsAH strains carrying a chromosomal (mini)CTX::pqsA'-lux fusion; conditions: for Antagonist activity on PqsR (in words): pqsA'-lux reporter; for IC50: Figure 6 (QZNs), P. aeruginosa wild type strain with miniCTX::pqsA'-lux fusion, read-out: Antagonist IC50±SD
[3] = Figure 2 (AQs), P. aeruginosa ΔpqsA CTX::pqsA'-lux strain, read-out: Agonist EC50 ±SD
[4] = Figure 6 (QZNs), P. aeruginosa ΔpqsA miniCTX::pqsA'-lux strain, read-out: Agonist EC50±SD

| Compound | Antagonist activity on PqsR (in words) (PqsR [2]) | Agonist activity on PqsR (in words) (PqsR [1]) | also measured |
| --- | --- | --- | --- |
| CCCCCCCc1[nH]c2ccccc2c(=O)c1N [5a] | – | – | EC50 (PqsR [1]; [3]): 0.4 ± 0.15 µM |
| CCCCCCCCCc1nc2cc(F)ccc2c(=O)[nH]1 [7F-C9-QZN] | devoid of agonist or antagonist activity | devoid of agonist or antagonist activity | Agonist activity on PqsR (in words) (PqsR [1]; listed as 8): partial agonists |
| CCCCCCCc1nc2ccccc2c(=O)[nH]1 [C7-QZN] | devoid of agonist or antagonist activity | devoid of agonist or antagonist activity | – |
| CCCCCCCCCc1nc2ccccc2c(=O)[nH]1 [C9-QZN] | devoid of agonist or antagonist activity | devoid of agonist or antagonist activity | – |
| CCCCCCCc1[nH]c2cc(Cl)ccc2c(=O)c1O [compound 5] | – | – | EC50 (PqsR [1]; [3]): 0.014 ± 0.005 µM; Agonist potency relative to PQS (PqsR [1]; in P. aeruginosa, from Figure 2 EC50s): ~135 times |
| CCCCCCCc1nc2ccccc2c(=O)n1O [compound 9] | – | partial agonists | EC50 (PqsR [1]; [4]): 54 ± 6.6 µM |
| CCCCCCCCCc1nc2ccccc2c(=O)n1O [compound 10] | – | – | EC50 (PqsR [1]; [4]): 30 ± 3.8 µM |
| CCCCCCCCCc1nc2cc(Cl)ccc2c(=O)n1O [compound 11] | – | – | EC50 (PqsR [1]; [4]): 12.7 ± 7.8 µM |
| CCCCCCCCCc1nc2cc(F)ccc2c(=O)n1O [compound 12] | – | totally devoid of agonist activity | EC50 (PqsR [1]; [4]): 21 ± 5.5 µM |
| CCCCCCCc1nc2ccccc2c(=O)n1OC [compound 13] | – | inactive; also recorded: totally devoid of agonist activity | – |
| CCCCCCCCCc1nc2ccccc2c(=O)n1OC [compound 14] | – | inactive | – |
| CCCCCCCCCc1nc2cc(Cl)ccc2c(=O)n1OC [compound 15] | – | – | EC50 (PqsR [1]; [4]): 37.3 ± 6.5 µM |
| CCCCCCCCCc1nc2cc(F)ccc2c(=O)n1OC [compound 16] | – | – | EC50 (PqsR [1]; [4]): 2.2 µM |
| CCCCCCCCCc1nc2cc(F)c(F)cc2c(=O)n1OC [compound 17] | – | – | EC50 (PqsR [1]; [4]): 53.6 ± 13.7 µM; Reduction of agonist potency relative to 3-OMe-7F-C9-QZN (PqsR [1]; second fluorine introduced): ~25 fold |
| CCCCCCCc1nc2ccccc2c(=O)n1N [compound 19] | – | None of these compounds were agonists | IC50 (PqsR [2]): 54 ± 15.5 µM |
| CCCCCCCCCc1nc2ccccc2c(=O)n1N [compound 20] | – | None of these compounds were agonists | IC50 (PqsR [2]): 77.2 ± 1 µM |
| CCCCCCCCCCCc1nc2ccccc2c(=O)n1N [compound 21] | – | None of these compounds were agonists | IC50 (PqsR [2]): 210 ± 77 µM |
| CCCCCCCCCc1nc2ccc(Cl)cc2c(=O)n1N [compound 22] | complete loss of antagonist activity | – | – |
| CCCCCCCCCc1nc2cc(F)ccc2c(=O)n1N [compound 25] | – | – | IC50 (PqsR [2]): 3.9 ± 1.5 µM |
| CCCCCCCCCc1nc2cc(F)c(F)cc2c(=O)n1N [compound 26] | – | – | IC50 (PqsR [2]): 1.2 ± 0.4 µM |
| CCCCCCCCCc1nc2cc(C(F)(F)F)ccc2c(=O)n1N [compound 27] | complete loss of activity | – | – |
| CCCCCCCCCc1nc2cc(OC)c(OC)cc2c(=O)n1N [compound 28] | inactive | – | – |
| CCCCCC(C)CCc1nc2ccccc2c(=O)n1N (stereo not drawn) [compound 29] | all inactive | – | – |
| CC(C)CCCCCCc1nc2ccccc2c(=O)n1N [compound 30] | all inactive | – | – |
| CCCCOCCOCc1nc2ccccc2c(=O)n1N [compound 32] | all inactive | – | – |
| CCCCCCCCCc1nc2ccccc2c(=O)n1NC(C)=O [compound 33] | inactive or weak antagonists | – | – |
| Nn1c(CCCc2ccccc2)nc2cc(Cl)ccc2c1=O [compound 41] | – | – | IC50 (PqsR [2]): 39.6 ± 11 µM |
| CCCCCCCCCc1nc2ncccc2c(=O)n1N [compound 47] | complete loss of activity | – | – |
